Where two headings read alike, the source gives them in different places.

The test system of the series is microsomal protein. The format is in vivo, rat. To be noted: for decrease in hepatic microsomal protein content: 3 days, vs control. As to the method: Adult male rats (weighing 200-230 g) were divided into four groups of six animals each. Group 1 received an equivalent amount of saline and served as control. Animals from group 2, 3, and 4 were given methomyl 1, 2, and 4 mg/kg body weight i.p. respectively, between 8: 00 a.m. and 9:00 a.m., for three consecutive days. In the second set of experiments, adult male rats were divided into four groups. Animals from group 2, 3, and 4 were injected with 4 mg/kg body weight methomyl for one, three, and five successive days. The volume injected into the rats of body weight 200 g was 1 ml. In another experiment, adult female rats and old male rats (weighing 350-450 g, 8 months old) were divided into two groups of six animals each. Group 2 of each category received methomyl (4 mg/kg body weight, i.p., for three successive days), and group 1 of each category received an equivalent amount of saline and served as the control group.
The rats were sacrificed by cervical dislocation, 24 hours after the last dose. Their livers were perfused in situ with ice cold 1.15% KCl containing 0.05 mM EDTA, rapidly excised, blotted dry, weighed, minced and homogenized with two volumes of ice cold 0.25 M sucrose solution, in a Potter-Elvehjem type homogenizer. The homogenate was centrifuged at 10,000 × g for 10 min, in a refrigerated centrifuge (REMI C-24). The microsomes were isolated by the procedure described by of Cinti et al.[4] The microsomal pellet was suspended in phosphate buffer (0.1 M, pH 7.4) and the suspension was used for the microsomal enzyme assays. Microsomal protein content was measured by the Biuret method, using bovine serum albumin as the standard.[5]

For `CNC(=O)ON=C(C)SC` [methomyl, S-methyl-N-(methyl carbomyl)-thioacetimidate], the Microsomal protein runs as follows: (adult female rats, 4 mg/kg body weight, i.p., three days) 10.90 mg/g liver; (adult male rats, 1 mg/kg i.p., for 3 days) 13.53 mg/g liver; (adult male rats, 2 mg/kg i.p., for 3 days) 12.83 mg/g liver; (adult male rats, 4 mg/kg i.p., for 3 days) 15.10 mg/g liver; (adult rats, 4 mg/kg i.p., 1 day of treatment) 15.77 mg/g liver; (adult rats, 4 mg/kg i.p., 3 days of treatment) 16.00 mg/g liver. Further, the Microsomal protein is, setting by setting: (adult rats, 4 mg/kg i.p., 5 days of treatment) 12.20 mg/g liver; (old male rats, 4 mg/kg body weight, i.p., three days) 18.80 mg/g liver. The “decrease in hepatic microsomal protein content” value runs as follows: (adult male rats, 1 mg/kg i.p.) 28%; (adult male rats, 2 mg/kg i.p.) 31%; (adult male rats, 4 mg/kg i.p.) 19%. Further, the “change in microsomal protein” value (adult male rats, 4 mg/kg i.p., one, three and five days) is “No significant change”.
